This is an account of results in PubChem BioAssay (NCI).

Assay in all cases: NCI tumour cell line growth inhibition, 48 h
The subject of experiment [1] is MDA-MB-435.
Experiment [2] relates to MALME-3M melanoma.
The subject of experiment [3] is SNB-19 CNS.
The test system of experiment [4] is HT29 colon.
In experiment [5] the test system is NCI-H23 lung.
Experiment [6] deals with DU-145 prostate.
In experiment [7] the test system is PC-3 prostate.
Experiment [8] concerns UACC-257 melanoma.
For experiment [9], the system named is NCI-H522 lung.
Experiment [10] concerns SK-OV-3 ovarian.

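Values below derive from 48-hour exposures of cells grown in 96-well plates, with endpoints linearly interpolated between the two concentrations bracketing the appropriate inhibition level. The concentration for 50% growth inhibition is given as GI50. TGI: concentration producing complete growth inhibition.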 Some results are limits rather than exact numbers.

As to `O=C1c2ccccc2-c2c1c1ccccc1c(=O)n2CCNCCNCCn1c2c(c3ccccc3c1=O)C(=O)c1ccccc1-2`, the GI50 in experiment [1] was 0.97 µM; in experiment [2], 0.207 µM; in experiment [3] it was 1.14 µM; in [4], 0.017 µM; in [5], 0.717 µM; in experiment [6] it was 0.179 µM. For the same compound, the GI50 in experiment [7] is 0.701 µM; in experiment [8], 11.3 µM; in experiment [9], 2.28 µM; in experiment [10], 12.8 µM. The TGI in experiment [1] is 19.6 µM; in experiment [2], 16.2 µM; in experiment [3], 20.5 µM; in experiment [4] it was over 100 µM; in experiment [5], over 30.6 µM; in experiment [6], 4.61 µM. Also, the TGI is 19.3 µM in experiment [7], over 48.4 µM in [8] and 36.2 µM in experiment [10].
Turning to `C=C(CN1CCc2ccccc2C1)c1ccc(C(=O)Nc2ccc(N)cc2)cc1`, the GI50 is 3.11 µM in experiment [1]; 18.3 µM in experiment [2]; 28.3 µM in experiment [3]; 19.6 µM in experiment [4]; 17.4 µM in experiment [5]; 21.1 µM in experiment [6]. Further, the GI50 in experiment [7] is 3.08 µM; in experiment [8] it was 20.2 µM; in [9], 3.89 µM; in [10] it was 19.5 µM. For the same compound, the TGI in experiment [1] was 11.3 µM; in experiment [2], 61 µM; in experiment [3], over 100 µM; in [4] it was 43.2 µM; in [5], over 100 µM; in experiment [6], 81.3 µM. Moreover, the TGI in experiment [7] came to 48 µM; in experiment [8] it was 59.7 µM; in [9], 21 µM; in experiment [10], 53.7 µM.
In the case of `COC(=O)/C(=C\c1c(C)[nH]c2ccccc12)S(=O)(=O)c1ccccc1`, the GI50 was 2.86 µM in experiment [1]; 7.27 µM in experiment [2]; 7.59 µM in experiment [3]; 5.23 µM in experiment [4]; 4.81 µM in [5]; 2.94 µM in experiment [6]. In addition, the GI50 was 5.54 µM in [7], 6.97 µM in experiment [8], 3.19 µM in experiment [9] and 9.27 µM in [10]. Further, the TGI in [1] is 13.8 µM; in [2], 32.6 µM; in [3], 22.1 µM; in [4], over 100 µM; in [5], 29.5 µM; in experiment [6] it was 8.01 µM. Besides, the TGI in [7] is over 100 µM; in [8] it was 20.9 µM; in [9], 14.4 µM; in [10] it was 41.4 µM.
Turning to `O=C(NC(=S)Nc1ccc(Cl)cc1)c1ccccc1`, the GI50 in experiment [1] was over 100 µM; in experiment [2] it was over 100 µM; in experiment [3], over 79.2 µM; in experiment [4], over 100 µM; in experiment [5] it was over 100 µM; in experiment [6] it was over 72.9 µM. In addition, the GI50 in [7], in [8], in experiment [9] and in experiment [10] was over 100 µM each time. The TGI in experiment [1], in experiment [2], in experiment [3], in [4], in [5] and in [6] was over 100 µM in each case. Moreover, the TGI in [7], in experiment [8], in experiment [9] and in experiment [10] was over 100 µM each time.
For `O=C(Oc1ccc(CCl)cc1)c1ccccc1`, the GI50 in experiment [1] was 0.155 µM; in experiment [2] it was 0.127 µM; in experiment [3] it was 0.187 µM; in experiment [4], 0.149 µM; in experiment [5] it was 0.322 µM; in [6], 0.269 µM. The GI50 was 0.15 µM in experiment [7], 0.196 µM in experiment [8], 0.154 µM in experiment [9] and 0.386 µM in experiment [10]. In addition, the TGI in experiment [1] turned out to be 0.299 µM; in experiment [2] it was 0.274 µM; in experiment [3], 0.495 µM; in experiment [4], 0.289 µM; in [5], 1.15 µM; in experiment [6], 0.746 µM. Further, the TGI is 0.332 µM in [7], 0.503 µM in [8], 0.316 µM in experiment [9] and 1.42 µM in experiment [10].
In the case of `COc1cc2c(/C=C3/C(=O)Nc4ccccc43)c(Cl)n(Cc3ccccc3[N+](=O)[O-])c2cc1C`, the GI50 in experiment [1] is 3.39 µM; in experiment [2] it was 3.41 µM; in [3], 11.1 µM; in experiment [4] it was 1.93 µM; in experiment [5] it was 7.77 µM; in experiment [6], 6.74 µM. In addition, the GI50 in experiment [7] was 5.08 µM; in [8], 17.7 µM; in experiment [9], 12.2 µM; in [10], 14.8 µM. In addition, the TGI in [1] was 15.6 µM; in [2], 13.8 µM; in experiment [3] it was 30.8 µM; in [4] it was 24.4 µM; in experiment [5] it was 22.3 µM; in experiment [6], over 100 µM. The TGI in experiment [7] came to 25.6 µM; in experiment [8] it was 85.5 µM; in experiment [9], 35.3 µM; in [10], 32.5 µM.
Consider `OCCCCC#Cc1ccccc1C#Cc1ccccc1C(F)(F)F`, for which the GI50 in experiment [1] was 0.847 µM; in experiment [2], 14.7 µM; in experiment [3], 18 µM; in [4] it was 4.01 µM; in [5], 12.1 µM; in [6] it was 6.16 µM. Also, the GI50 is 8.77 µM in experiment [7], 17.7 µM in experiment [8], 9.13 µM in experiment [9] and 17.7 µM in experiment [10]. For the same compound, the TGI in experiment [1] is 2.75 µM; in experiment [2], 37.5 µM; in experiment [3] it was 34.3 µM; in experiment [4], 16.5 µM; in experiment [5], 27.8 µM; in experiment [6], 19 µM. Besides, the TGI in [7] worked out at 21 µM; in experiment [8] it was 31.9 µM; in experiment [9], 22.7 µM; in experiment [10], 32.7 µM.
